Measurements: patent publication US12263175B2, “Optimised dosage of diaminophenothiazines in populations” (WisTa Laboratories Ltd., priority 2018, dated 2025)

Test: Treatment-emergent adverse events, three Phase 3 double-blind studies, LMTM pooled safety population
Type: in vivo, human
Source text: Three Phase 3, double-blind, controlled studies of LMTM have been completed (one each in subjects with mild and mild to moderate AD and one in subjects with bvFTD). Results of the AD studies have been published (Gauthier et al., 2016; Wilcock et al., 2018).
In these three studies, 1897 subjects received at least one dose of LMTM (Safety Population [Five additional subjects with AD, participating at one site in Study TRx-237-005, received a dose of study drug but were excluded from all analyses due to GCP violations], 1679 subjects with AD and 218 subjects with bvFTD). Of these, 860 subjects received the control (LMTM 8 mg/day, 750 with AD and 110 with bvFTD) and 1037 subjects received at least one dose of LMTM in the higher doses of 150 to 250 mg/day (929 with AD and 108 with bvFTD).
The incidence of the most common TEAEs are summarised by dose in the following Table EX1. This includes TEAEs that occurred at an incidence of ≥2.0% either in subjects randomised to LMTM 8 mg/day or higher doses (150 to 250 mg/day). The subset of TEAEs that were severe in intensity are also included.
The TEAEs are further analysed by using groupings of related MedDRA (Medical Dictionary for Regulatory Activities) preferred terms to better estimate the incidence of potentially treatment related adverse events. The incidence of all groupings for subjects categorised by dose (8 mg/day versus higher doses of 150 to 250 mg/day) is shown in the following Table EX2: […]

[1] = Higher Doses (150-250 mg/day) (N = 1037)
[2] = Higher Doses (150-250 mg/day) (N = 1037), All
[3] = Higher Doses (150-250 mg/day) (N = 1037), Severe Intensity

CN(C)c1ccc2c(c1)Sc1cc(N(C)C)ccc1N2 [LMTM, leuco-methylthioninium bis(hydromethanesulfonate)]
Grouped TEAE incidence: Affective/Anxiety Symptoms [1]: 55 (5.3%) n (%)
Grouped TEAE incidence: Anaemia [1]: 219 (21.1%) n (%)
Grouped TEAE incidence: Behavioral Symptoms [1]: 118 (11.4%) n (%)
Grouped TEAE incidence: Falls and Related Terms [1]: 202 (19.5%) n (%)
Grouped TEAE incidence: Hepatic Function Impairment [1]: 34 (3.3%) n (%)
Grouped TEAE incidence: Hypersensitivity [1]: 63 (6.1%) n (%)
Grouped TEAE incidence: Ischaemic Events, Inclusive of Myocardial Infarction [1]: 35 (3.4%) n (%)
Grouped TEAE incidence: Psychotic Symptoms [1]: 34 (3.3%) n (%)
Grouped TEAE incidence: Renal Function Impairment [1]: 42 (4.1%) n (%)
Grouped TEAE incidence: Renal and Urinary Disorders (Including Infections) [1]: 326 (31.4%) n (%)
Grouped TEAE incidence: Sleep Disorders [1]: 48 (4.6%) n (%)
Grouped TEAE incidence: Targeted Gastrointestinal Events [1]: 401 (38.7%) n (%)
No. (%) of Subjects Reporting at Least One TEAE [2]: 902 (87.0%) n (%)
TEAE incidence: Abdominal pain [2]: 30 (2.9%) n (%)
TEAE incidence: Abdominal pain upper [2]: 21 (2.0%) n (%)
TEAE incidence: Agitation [2]: 61 (5.9%) n (%)
TEAE incidence: Anaemia [2]: 59 (5.7%) n (%)
TEAE incidence: Anxiety [2]: 39 (3.8%) n (%)
TEAE incidence: Arthralgia [2]: 31 (3.0%) n (%)
TEAE incidence: Atrial fibrillation [2]: 10 (1.0%) n (%)
TEAE incidence: Back pain [2]: 44 (4.2%) n (%)
TEAE incidence: Blood creatine phosphokinase increased [2]: 31 (3.0%) n (%)
TEAE incidence: Blood folate decreased [2]: 76 (7.3%) n (%)
TEAE incidence: Bronchitis [2]: 19 (1.8%) n (%)
TEAE incidence: Cerebral microhaemorrhage [2]: 16 (1.5%) n (%)
TEAE incidence: Confusional state [2]: 45 (4.3%) n (%)
TEAE incidence: Constipation [2]: 24 (2.3%) n (%)
TEAE incidence: Contusion [2]: 15 (1.4%) n (%)
TEAE incidence: Cough [2]: 42 (4.1%) n (%)
TEAE incidence: Decreased appetite [2]: 39 (3.8%) n (%)
TEAE incidence: Dehydration [2]: 18 (1.7%) n (%)
TEAE incidence: Depression [2]: 37 (3.6%) n (%)
TEAE incidence: Diarrhoea [2]: 278 (26.8%) n (%)
TEAE incidence: Dizziness [2]: 64 (6.2%) n (%)
TEAE incidence: Dysuria [2]: 75 (7.2%) n (%)
TEAE incidence: Fall [2]: 78 (7.5%) n (%)
TEAE incidence: Fatigue [2]: 38 (3.7%) n (%)
TEAE incidence: Folate deficiency [2]: 45 (4.3%) n (%)
TEAE incidence: Haemoglobin decreased [2]: 34 (3.3%) n (%)
TEAE incidence: Hallucination [2]: 21 (2.0%) n (%)
TEAE incidence: Headache [2]: 61 (5.9%) n (%)
TEAE incidence: Hypertension [2]: 22 (2.1%) n (%)
TEAE incidence: Insomnia [2]: 32 (3.1%) n (%)
TEAE incidence: Laceration [2]: 14 (1.4%) n (%)
TEAE incidence: Micturition urgency [2]: 35 (3.4%) n (%)
TEAE incidence: Nasopharyngitis [2]: 43 (4.1%) n (%)
TEAE incidence: Nausea [2]: 86 (8.3%) n (%)
TEAE incidence: Oedema peripheral [2]: 20 (1.9%) n (%)
TEAE incidence: Pain in extremity [2]: 17(1.6%) n (%)
TEAE incidence: Pollakiuria [2]: 71 (6.8%) n (%)
TEAE incidence: Rash [2]: 30 (2.9%) n (%)
TEAE incidence: Suicidal ideation [2]: 30 (2.9%) n (%)
TEAE incidence: Syncope [2]: 28 (2.7%) n (%)
TEAE incidence: Tremor [2]: 13 (1.3%) n (%)
TEAE incidence: Upper respiratory tract infection [2]: 34 (3.3%) n (%)
TEAE incidence: Urinary incontinence [2]: 63 (6.1%) n (%)
TEAE incidence: Urinary tract infection [2]: 116 (11.2%) n (%)
TEAE incidence: Vitamin B12 decreased [2]: 21 (2.0%) n (%)
TEAE incidence: Vomiting [2]: 80 (7.7%) n (%)
TEAE incidence: Weight decreased [2]: 39 (3.8%) n (%)
No. (%) of Subjects Reporting at Least One TEAE [3]: 126 (12.2%) n (%)
TEAE incidence: Abdominal pain [3]: 1 (0.1%) n (%)
TEAE incidence: Abdominal pain upper [3]: 0 n (%)
TEAE incidence: Agitation [3]: 7 (0.7%) n (%)
TEAE incidence: Anaemia [3]: 0 n (%)
TEAE incidence: Anxiety [3]: 2 (0.2%) n (%)
TEAE incidence: Arthralgia [3]: 1 (0.1%) n (%)
TEAE incidence: Atrial fibrillation [3]: 2 (0.2%) n (%)
TEAE incidence: Back pain [3]: 2 (0.2%) n (%)
TEAE incidence: Blood creatine phosphokinase increased [3]: 0 n (%)
TEAE incidence: Blood folate decreased [3]: 0 n (%)
TEAE incidence: Bronchitis [3]: 0 n (%)
TEAE incidence: Cerebral microhaemorrhage [3]: 0 n (%)
TEAE incidence: Confusional state [3]: 2 (0.2%) n (%)
TEAE incidence: Constipation [3]: 1 (0.1%) n (%)
TEAE incidence: Contusion [3]: 0 n (%)
TEAE incidence: Cough [3]: 0 n (%)
TEAE incidence: Decreased appetite [3]: 1 (0.1%) n (%)
TEAE incidence: Dehydration [3]: 2 (0.2%) n (%)
TEAE incidence: Depression [3]: 2 (0.2%) n (%)
TEAE incidence: Diarrhoea [3]: 14 (1.4%) n (%)
TEAE incidence: Dizziness [3]: 2 (0.2%) n (%)
TEAE incidence: Dysuria [3]: 1 (0.1%) n (%)
TEAE incidence: Fall [3]: 7 (0.7%) n (%)
TEAE incidence: Fatigue [3]: 1 (0.1%) n (%)
TEAE incidence: Folate deficiency [3]: 0 n (%)
TEAE incidence: Haemoglobin decreased [3]: 0 n (%)
TEAE incidence: Hallucination [3]: 4 (0.4%) n (%)
TEAE incidence: Headache [3]: 3 (0.3%) n (%)
TEAE incidence: Hypertension [3]: 1 (0.1%) n (%)
TEAE incidence: Insomnia [3]: 0 n (%)
TEAE incidence: Laceration [3]: 1 (0.1%) n (%)
TEAE incidence: Micturition urgency [3]: 0 n (%)
TEAE incidence: Nasopharyngitis [3]: 0 n (%)
TEAE incidence: Nausea [3]: 1 (0.1%) n (%)
TEAE incidence: Oedema peripheral [3]: 0 n (%)
TEAE incidence: Pain in extremity [3]: 0 n (%)
TEAE incidence: Pollakiuria [3]: 2 (0.2%) n (%)
TEAE incidence: Rash [3]: 0 n (%)
TEAE incidence: Suicidal ideation [3]: 0 n (%)
TEAE incidence: Syncope [3]: 5 (0.5%) n (%)
TEAE incidence: Tremor [3]: 0 n (%)
TEAE incidence: Upper respiratory tract infection [3]: 0 n (%)
TEAE incidence: Urinary incontinence [3]: 1 (0.1%) n (%)
TEAE incidence: Urinary tract infection [3]: 3 (0.3%) n (%)
TEAE incidence: Vitamin B12 decreased [3]: 0 n (%)
TEAE incidence: Vomiting [3]: 3 (0.3%) n (%)
TEAE incidence: Weight decreased [3]: 0 n (%)
Grouped TEAE incidence: Affective/Anxiety Symptoms (LMTM 8 mg/day (N = 860)): 60 (7.0%) n (%)
Grouped TEAE incidence: Anaemia (LMTM 8 mg/day (N = 860)): 111 (12.9%) n (%)
